The values below come from patent US20080268483A1, “Methods for a Global Assay of Coagulation and Fibrinolysis” (The Regents of the University of Colorado, priority 2004, published 2008).

The subject of series [1] is standard normal pooled plasma. The series can be described thus: CloFAL assay, altered fibrinolysis studies in treated standard normal pooled plasma. The settings on record: TAFIa inhibition by PTCI, final plasma concentration 50 μg/mL. Format: biochemical, human.
Protocol: Frozen plasma aliquots were thawed in a 37° C. water bath for three minutes. […] Plasma samples (fresh or freeze-thawed) were maintained for up to 30 minutes in an ice-water bath until time of assay. […]
The kinetic absorbance data was exported to Microsoft Excel and absorbance measurements at each time point were averaged for the triplicate runs of each specimen. Using the averaged absorbance for the specimen, the maximum amplitude of rise in absorbance was determined (MA=maximum absorbance minus baseline absorbance, where baseline absorbance was obtained by averaging the third through eighth kinetic readings). […]
The subject of series [2] is standard normal pooled plasma. Kind of series: CloFAL assay, heparin studies and heparinase reversal. Format: biochemical, human. The text has this: The assay described here was modified from those of He et al. (1999) and Smith et al. (2003). As compared to that by Smith et al., which evaluates only fibrinolysis, the CloFAL assay permits assessment of coagulability as well. Furthermore, when compared to the global assay of He et al., the CloFAL assay permits testing with a single reagent to evaluate both coagulation and fibrinolysis, rather than requiring (as does that of He et al.) the preparation of two distinct reagents for separate evaluation of the plasma sample. […] Frozen plasma aliquots were thawed in a 37° C. water bath for three minutes. […]
For each patient sample to be analyzed, 75 μL of freeze-thawed or fresh plasma was dispensed into each of three wells in a round-bottom, 96-well, Nunc assay plate (Fisher Scientific, Santa Clara, Calif.), and then pre-warmed at 37° C. for three minutes. […] The plate was then immediately placed in an eight-channel microplate spectrophotometer (PowerWave HT, Bio-Tek Instruments, Winooski, Vt.) for dual kinetic absorbance measurements at 405 nm and 630 nm at 45-second intervals for 3 hours, following an initial five-second mixing step prior to the first reading. The spectrophotometer interfaced with a computer such that all its operations, including continuous analysis of delta-absorbance (405 nm minus 630 nm) data using KC4™ PC software, may be automated. […]

For “PTCI: potato tuber carboxypeptidase inhibitor (Sigma-Aldrich), blocks TAFI activation to enhance fibrinolysis (QQHADPICNKPCKTHDDCSGAWFCQACWNSARTCGPYVG; UniProt P01075 1-39, looked up)”, in series [1], the “FI (fibrinolytic index)” value was “increased” and the “duration of the first phase of decline in turbidity in the CloFAL curve” value was “prolonged”.

Take heparin: the “rise in absorbance of the CloFAL curve” value in series [2] (heparin at 2 U/mL in standard normal pooled plasma) was “greatly prevented”; in series [2] (heparin concentrations of as little as 0.1 U/mL), “prolongation and attenuation”.
